Measured values: US20220257541A1, “Lacosamide for the Treatment of ADD/ADHD” (priority 2019, published 2022)

Columns and labels:
[1] = test system: patient with ADHD of the combined type; assay: Case Study 1: lacosamide mono-therapy in a child with ADHD; format: in vivo, human
Protocol: We present the case study of a child suffering from ADHD (with no comorbidity such as epilepsy or bipolar disorder). The child was treated with a lacosamide mono-therapy for several weeks based on the conventional treatment regime for lacosamide in children (for the treatment of epilepsy and/or bipolar disorder).
This case study describes the case of a person (“the patient”) with ADHD of the combined type. The patient had not previously been treated with any psychotropic drugs.
Before initiating the selected drug treatment, the patient underwent a full medical examination. In addition, reports from their school teachers as well as parents were collected.
Lacosamide was administered to the patient following the approved treatment regimen for lacosamide (Vimpat®) in epileptic children from 4 years of age.
The treatment was delivered twice a day and went on for >8 weeks.

[2] = test system: children and adolescents with ADHD syndrome; assay: Case Study 3: Wisconsin Card Sorting Test (WCST) Flexibility; format: in vivo, human
Protocol: These tests offered an objective element that contributed to the establishment of the diagnosis.
(§1) Neuropsychological evaluation was repeated after six months on medication, at the end of the study. These evaluations were guided by trained neuropsychologists. Four different evaluations were conducted: Continuous Performance Test (CPT)1, STROOP-P test, Wisconsin Card sorting Test and the Non Verbal Intelligence Test.
The patients were assessed using the Wisconsin Card Sorting Test (WCST), which is used to measure higher-level cognitive processes, such as attention, perseverance, abstract thinking, and set shifting. It is particularly used in clinical fields to measure perseverative behaviours that refer to an individual's insistence on wrong behaviour.

[3] = test system: potassium or calcium currents; details: cited from earlier work
[4] = test system: children and adolescents with ADHD syndrome; assay: Case Study 3: neuropsychological results analysis (executive function, attention); format: in vivo, human; details: after six months on medication
Protocol: as §1
We measured pedagogical values and characteristics of the executive function (Reasoning, Cognitive Flexibility, Attentional function, Intellectual Quotient, impulse inhibition, Perseveration resistance) throughout the course of the treatment with lacosamide.

GABA transaminase = GABA transaminase (Homo sapiens, UniProt P80404); details: cited from earlier work
Chain of GABA transaminase (P80404 29-500, species assumed): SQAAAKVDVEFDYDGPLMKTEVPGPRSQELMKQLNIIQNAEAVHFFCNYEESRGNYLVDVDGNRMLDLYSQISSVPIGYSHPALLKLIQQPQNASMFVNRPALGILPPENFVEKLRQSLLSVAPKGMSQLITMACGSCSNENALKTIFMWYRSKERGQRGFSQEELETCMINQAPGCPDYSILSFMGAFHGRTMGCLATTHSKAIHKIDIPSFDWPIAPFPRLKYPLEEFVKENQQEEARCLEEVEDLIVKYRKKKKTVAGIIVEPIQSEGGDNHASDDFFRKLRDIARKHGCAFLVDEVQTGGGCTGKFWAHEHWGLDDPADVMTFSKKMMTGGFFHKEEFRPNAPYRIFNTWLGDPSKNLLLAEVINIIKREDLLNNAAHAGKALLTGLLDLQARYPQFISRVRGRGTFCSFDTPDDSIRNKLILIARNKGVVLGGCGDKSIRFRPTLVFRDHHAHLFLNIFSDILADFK

[5] = test system: children and adolescents with ADHD syndrome; assay: Case Study 3: adverse reactions or side effects; format: in vivo, human; details: all 12 patients, 6 months
Description: To formalise the control of the treatment, a tool was designed, allowing to record all administrated doses to participants on a daily basis, including any occurrence or increase of adverse reactions or side effects.

[6] = test system: children and adolescents with ADHD syndrome; assay: Case Study 3: pedagogical evaluation (literary and mathematical skills); format: in vivo, human
Protocol: In order to evaluate the academic level of the patients and later evolution while being treated, we established indicators of literary and mathematical skills of the patients in line with the official assessment of the Ministry of Education of the Dominican Republic.
Academic evolution was assessed 90 days after initiating the treatment and at the end of the 6th month.
In order to measure academic evolution we used different parameters, which are: Spanish language, Reading, Writing, Comprehension of their own reading, Mathematics, Reasoning, argumentation capacities and Problem solving.
Independently, we established at each evaluation the attained level of alphabetisation and the acquisition of literary skills every patient had, as shown in Table 3.
We categorised the sample following the protocol of the local Ministry of Education's Evaluation tool, which will qualify students following the consideration of “Non Acquired”, “Towards Acquisition” or “Acquired” levels.

[7] = end of the study, 17% prior to treatment

SMILES: COC[C@@H](NC(C)=O)C(=O)NCc1ccccc1 [lacosamide, (2R)-2-(acetylamino)-N-benzyl-3-methoxypropanamide]
- tolerance of the maximum dose administered ([1]; 250 mg/day): no signs of intolerance or inadequacy
- tolerance of the dose ([1]; Day 8, 25 mg every 12 hours (50 mg/day)): tolerated the dose well
- behaviour, sleeping activity, cognitive functionality ([1]; Day 8, 50 mg/day): No improvement
- adverse reaction observed ([1]; Day 8, 50 mg/day, ceased after the first few days of treatment): sporadic headaches
- quality of sleep or cognitive functionality ([1]; Day 15, 100 mg/day): No improvement
- quality of sleep ([1]; Day 23, 75 mg every 12 hours (150 mg/day)): Improvement
- cognitive functionality ([1]; Day 23, 150 mg/day): improved
- lethargic napping in the afternoon ([1]; Day 32, after increase to 200 mg/day, symptoms subsequently became milder): initially replaced with agitation and hyperactivity
- behaviour at school and home ([1]; Day 36, 200 mg/day): consistent improvement
- aggression or irritability at home ([1]; Day 49, 125 mg every 12 hours (250 mg/day)): did not show any aggression or irritability
- conversation in consultation ([1]; Day 49, 250 mg/day): able to sustain longer logical conversations, at least partially
- dysphasia ([1]; Day 63, 250 mg/day): gradual improvement
- hyperactivity ([1]; Day 63, 250 mg/day): no signs of hyperactivity
- quality of sleep ([1]; Day 63, 250 mg/day): dramatically improved
- dose after which sleep pattern and vegetative functions began to stabilize ([1]; administered as two separate 75 mg doses): 150 mg/day
- dose at which higher functions were stabilized ([1]; administered as two separate 100 mg doses): ~200 mg/day
- ADHD symptomatology ([1]; child, mono-therapy for several weeks): regressed dramatically
- secondary reactions or effects ([1]; twice a day for >8 weeks): No secondary reactions or effects were observed
- cognitive flexibility ([2]; after six months on medication): improving
- patients with Average and High Average scores, WCST Flexibility ([2]; second evaluation, 25% in the first evaluation): 50%
- patients in the lowest two categories (Mild and Severe Deterioration), WCST Flexibility ([2]; second evaluation, 41.7% in the first evaluation): 16.6%
- block of potassium or calcium currents [3]: does not block
- Visual Attention, Perseveration Resistance and Impulse Inhibition [4]: did not show the expected improvement
- indicator Attentional Difficulty [4]: improvement
- variables of distraction and impulsivity [4]: no impact
- inhibition of GABA transaminase (GABA transaminase): does not inhibit
- side effects [5]: without substantial side effects
- pedagogic evaluation, all tested competencies ([6]; 6-month treatment, tests pre-treatment, after 3 and 6 months): gradual progression
- patients who completely acquired Reasoning and Solving Problems (Mathematics) ([6]; after 3 months of treatment, initial 25%): 50%
- subjects at the intermediate level, Towards Acquisition ([6]; end of the study): 25%
- change in patients who acquired the reading and writing skills ([6]; end of the study versus first evaluation): +60%
- patients able to understand what they were reading (Comprehensive Reading) [6, 7]: 83%
- patients who completely acquired the reading and writing skills [6, 7]: 75%
- subjects at the non-acquired level (Read, Write, Comprehensive Reading) ([6]; end of the study, 83% prior to treatment): 0%
- proportion of the sample Alphabetised (alphabetical level) ([6]; maintained until the end of the study, 25% at the beginning): 75%
